Assay results: the supplement of paper PMC10307832

What was measured:
Assay in all cases: relative viability (nuclei count vs DMSO), 5 days (fraction); higher = more cells survive
RAF265 + Tozasertib = compound: Cn1c(Nc2ccc(C(F)(F)F)cc2)nc2cc(Oc3ccnc(-c4ncc(C(F)(F)F)[nH]4)c3)ccc21 [RAF265] + Cc1cc(Nc2cc(N3CCN(C)CC3)nc(Sc3ccc(NC(=O)C4CC4)cc3)n2)n[nH]1 [Tozasertib] (partner 0.1 µM)
Summary of the method: (§1)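 Lung cancer cell lines were seeded in 1536-well plates and dosed by pin tool the next day, with either a single drug or a fixed anchor-drug dose combined with five library-drug doses (not always all listed) spaced in √10 steps. Five days later, one step fixed the cells and stained their nuclei (final 0.05% Triton X-100, 1% formaldehyde, 1 ug/ml Hoechst), and nuclei were counted on 4× images. Relative viability is the nuclei count in treated wells divided by the count in vehicle wells, and each value is the median of duplicate plates.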

IPA-3 + Linsitinib = compound: C1=CC=C2C(=C1)C=CC(=C2SSC3=C(C=CC4=CC=CC=C43)O)O [IPA-3] + C[C@]1(O)C[C@@H](c2nc(-c3ccc4ccc(-c5ccccc5)nc4c3)c3c(N)nccn32)C1 [Linsitinib] (partner 1 µM)
Summary of the method: as §1

IPA-3 + Foretinib = compound: C1=CC=C2C(=C1)C=CC(=C2SSC3=C(C=CC4=CC=CC=C43)O)O [IPA-3] + COc1cc2c(Oc3ccc(NC(=O)C4(C(=O)Nc5ccc(F)cc5)CC4)cc3F)ccnc2cc1OCCCN1CCOCC1 [Foretinib] (partner 0.25 µM)
Summary of the method: as §1

RAF265 + Linsitinib = compound: Cn1c(Nc2ccc(C(F)(F)F)cc2)nc2cc(Oc3ccnc(-c4ncc(C(F)(F)F)[nH]4)c3)ccc21 [RAF265] + C[C@]1(O)C[C@@H](c2nc(-c3ccc4ccc(-c5ccccc5)nc4c3)c3c(N)nccn32)C1 [Linsitinib] (partner 1 µM)
Summary of the method: as §1

Cell Line | relative viability (RAF265 + Tozasertib; first compound 0.01 µM) | relative viability (RAF265 + Tozasertib; first compound 0.03162 µM) | relative viability (RAF265 + Tozasertib; first compound 0.1 µM) | relative viability (RAF265 + Tozasertib; first compound 0.3162 µM) | relative viability (RAF265 + Tozasertib; first compound 1 µM) | relative viability (IPA-3 + Linsitinib; first compound 0.2 µM) | relative viability (IPA-3 + Linsitinib; first compound 0.6325 µM) | relative viability (IPA-3 + Linsitinib; first compound 2 µM) | relative viability (IPA-3 + Linsitinib; first compound 6.325 µM) | relative viability (IPA-3 + Linsitinib; first compound 20 µM) | relative viability (IPA-3 + Foretinib; first compound 0.2 µM) | relative viability (IPA-3 + Foretinib; first compound 0.6325 µM) | relative viability (IPA-3 + Foretinib; first compound 2 µM) | relative viability (IPA-3 + Foretinib; first compound 6.325 µM) | relative viability (IPA-3 + Foretinib; first compound 20 µM) | relative viability (RAF265 + Linsitinib; first compound 0.01 µM) | relative viability (RAF265 + Linsitinib; first compound 0.03162 µM) | relative viability (RAF265 + Linsitinib; first compound 0.1 µM) | relative viability (RAF265 + Linsitinib; first compound 0.3162 µM) | relative viability (RAF265 + Linsitinib; first compound 1 µM)
NCI-H1437 | 0.408 | 0.437 | 0.427 | 0.45 | 0.365 | 1.25 | 0.933 | 0.988 | 0.975 | 1.3 | 1.37 | 1.23 | 1.32 | 1.2 | 1.35 | 1.09 | 1.01 | 1.08 | 1 | 0.945
NCI-H1651 | 0.744 | 0.718 | 0.731 | 0.703 | 0.426 | 1.1 | – | 1.07 | 1.04 | 1.05 | 0.981 | 0.717 | 0.967 | 0.952 | 1.04 | 0.999 | 0.976 | 1.07 | 0.74 | 0.737
NCI-H1666 | 0.635 | 0.664 | 0.689 | 0.618 | 0.488 | 0.865 | 0.87 | 0.857 | 0.763 | 0.693 | 0.988 | 0.926 | 0.976 | 1.01 | 1.16 | 0.894 | 0.923 | 0.888 | 0.854 | 0.565
NCI-H1734 | 0.306 | 0.276 | 0.255 | 0.232 | 0.215 | 0.995 | 0.849 | 0.884 | 0.92 | 1.07 | 0.972 | 0.803 | 0.845 | 0.92 | 0.934 | 1.02 | 0.883 | 0.717 | 0.676 | 0.421
NCI-H1755 | 0.556 | 0.634 | 0.598 | 0.552 | 0.402 | 1.03 | 0.94 | 0.981 | 0.984 | 1.04 | 0.923 | 0.884 | 0.879 | 0.85 | 0.952 | 0.959 | 1.06 | 0.988 | 0.825 | 0.579
NCI-H1793 | 0.404 | 0.421 | 0.361 | – | 0.172 | 1.24 | 0.794 | 0.977 | 1.06 | 1.15 | 0.918 | 0.67 | 0.656 | 0.757 | 1.05 | 0.794 | 0.767 | 0.779 | 0.46 | 0.376
NCI-H1915 | 0.437 | 0.428 | 0.457 | 0.278 | 0.163 | 1.12 | 1.13 | 1.11 | 1.08 | 1.09 | 1.13 | 1.06 | 1.08 | 1.11 | 1.11 | 1.1 | 1.01 | 1.03 | 0.653 | 0.323
NCI-H1944 | 0.265 | 0.248 | 0.265 | 0.234 | 0.185 | 1.2 | 1.12 | 1.23 | 1.48 | 1.3 | 1.05 | 0.856 | 0.879 | 0.938 | 0.928 | 1.25 | 1.37 | 1.08 | 0.64 | 0.716
